Assay results published in patent publication US7781005B2, “Sweetener composition” (Ajinomoto Co., Inc., priority 2004, dated 2010).

Columns and labels:
[1] = Photodecomposition of monatin in beverage model solution in PET container under D65 fluorescence lamp, HPLC; type: physicochemical; settings: D65 lamp 3000 lux, 165 hr
Experimental: Temperature: 25° C. constant temperature room (forced circulation).
HPLC Analysis Conditions:
The pH of a beverage model solution, a (citric acid 2 g, sodium benzoate 0.045 g)/L solution, was adjusted with 8N sodium hydroxide. (2R, 4R)monatin potassium salt (25 mg) and various additives were dissolved in the adjusted beverage model solution (500 mL) and filled in PET containers. […] The solution was simultaneously filled in a 20 ml screw cap vial and left standing for the same time in the same constant temperature room under a light shield. These light exposure solutions and light shield solutions were subjected to HPLC analysis, and photodecomposition rates were calculated by the following formula: The photodecomposition rate (%)=(1−(mass % concentration of monatin in light exposure solution/mass % concentration of monatin in light shield solution))×100 […]

[2] = Decomposition of monatin in solution by ultraviolet light (findings of the inventor); type: physicochemical; settings: solution state

Compound	photodecomposition rate ([1]; pH 2.8, 50 ppm) [%]	photodecomposition rate ([1]; pH 3.1, 50 ppm) [%]	photodecomposition rate ([1]; pH 3.5, 50 ppm) [%]	photodecomposition rate ([1]; pH 4, 50 ppm) [%]	photodecomposition rate ([1]; pH 4.5, 50 ppm) [%]	photodecomposition rate ([1]; pH 5.5, 50 ppm) [%]	photodecomposition rate ([1]; pH 6.5, 50 ppm) [%]	decomposition by ultraviolet light [2]
N[C@@H](Cc1c[nH]c2ccccc12)C(=O)O [Trp, tryptophan, reference compound]	7.3	6.0	6.2	5.5	5.4	12.5	55.1	
N[C@@H](C[C@@](O)(Cc1c[nH]c2ccccc12)C(=O)O)C(=O)O [monatin]	52.5	45.1	27.6	15.9	10.2	4.8	4.3	tends to decompose when exposed to ultraviolet light
(2R,4S)monatin								tend to be more easily decomposed by ultraviolet light than the other isomers
(2S,4R)monatin								tend to be more easily decomposed by ultraviolet light than the other isomers
